This passage reports IC50 results from patent US20250026766A1, “Thiazolopyridyl Amide Derivatives as DNA Polymerase Theta Inhibitors” (BeiGene, Ltd., priority 2022, published 2025).

Chain of Pol Theta (1-894) (O75417 1-894): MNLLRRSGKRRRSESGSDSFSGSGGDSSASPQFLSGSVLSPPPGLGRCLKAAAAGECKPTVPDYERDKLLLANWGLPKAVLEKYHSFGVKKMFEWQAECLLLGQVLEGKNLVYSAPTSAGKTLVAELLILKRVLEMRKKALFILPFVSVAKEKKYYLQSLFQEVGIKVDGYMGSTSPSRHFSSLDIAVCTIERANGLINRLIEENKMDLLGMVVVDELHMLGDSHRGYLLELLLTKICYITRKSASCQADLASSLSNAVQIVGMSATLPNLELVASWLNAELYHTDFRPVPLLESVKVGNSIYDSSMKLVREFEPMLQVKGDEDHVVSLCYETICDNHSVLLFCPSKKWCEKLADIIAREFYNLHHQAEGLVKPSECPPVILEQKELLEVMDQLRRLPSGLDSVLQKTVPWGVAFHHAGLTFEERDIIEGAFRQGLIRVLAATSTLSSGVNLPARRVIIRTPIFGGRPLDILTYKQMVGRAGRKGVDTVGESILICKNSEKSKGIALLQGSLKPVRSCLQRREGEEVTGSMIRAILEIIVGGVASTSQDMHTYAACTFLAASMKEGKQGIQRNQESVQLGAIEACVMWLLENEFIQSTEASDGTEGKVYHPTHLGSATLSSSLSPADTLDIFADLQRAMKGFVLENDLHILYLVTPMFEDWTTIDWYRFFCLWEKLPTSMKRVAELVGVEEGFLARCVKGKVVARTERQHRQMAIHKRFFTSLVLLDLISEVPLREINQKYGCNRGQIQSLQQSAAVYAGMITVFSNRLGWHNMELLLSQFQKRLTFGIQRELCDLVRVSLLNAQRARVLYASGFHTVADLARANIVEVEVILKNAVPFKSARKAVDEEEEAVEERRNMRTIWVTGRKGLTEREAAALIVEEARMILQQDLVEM

This test addresses Pol Theta (1-894) (Homo sapiens (Human), UniProt O75417). Description: Biochemical Pol Theta (1-894) ATPase IC50 assay (ADP-Glo, ssDNA substrate). The following applies: ADP-Glo assay with ssDNA substrate, room temperature. The method in brief: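 His-tagged human Pol Theta 1-894 from Sf9 baculovirus cells, 2× enzyme solution at 12.5 nM, assayed with ssDNA substrate at room temperature in 40 mM Tris pH 7.5, 20 mM MgCl2, 1 mM DTT, 0.01% BSA, 0.05% Tween-20.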
The molecule `COc1ccc([N+](=O)[O-])cc1-c1cc(C)ncc1C(=O)Nc1nc2ccc(-c3ccc(C#N)cc3)nc2s1` [Example 76, N-(5-(4-cyanophenyl)thiazolo[5,4-b]pyridin-2-yl)-4-(2-methoxy-5-nitrophenyl)-6-methylnicotinamide] gave an IC50 of 5.8 nM. In other words, the single-digit nanomolar range.
For `COc1ccc(C#N)cc1-c1cc(C)ncc1C(=O)Nc1nc2ccc(-c3ccc(N4CCCS4(=O)=O)cc3)nc2s1` [Example 135, 4-(5-cyano-2-methoxyphenyl)-N-(5-(4-(1,1-dioxidoisothiazolidin-2-yl)phenyl)thiazolo[5,4-b]pyridin-2-yl)-6-methylnicotinamide], the IC50 came out at 23 nM.
Molecule `COc1ccccc1-c1cc(C#N)ncc1C(=O)Nc1nc2ccc(-c3ccc(NC(C)=O)cc3)nc2s1` [Example 27, N-(5-(4-acetamidophenyl)thiazolo[5,4-b]pyridin-2-yl)-6-cyano-4-(2-methoxyphenyl)nicotinamide] yielded a half-inhibitory concentration (IC50) of 67 nM. Compared with the last molecule, the IC50 is about 2.9-fold higher.
In turn, `COc1cccc(Cl)c1-c1cc(C)ncc1C(=O)Nc1nc2ccc(-c3ccc(C#N)cc3)nc2s1` [Example 146, 4-(2-chloro-6-methoxyphenyl)-N-(5-(4-cyanophenyl)thiazolo[5,4-b]pyridin-2-yl)-6-methylnicotinamide] registered an IC50 of 22 nM. This IC50 lies about 3-fold lower than the previous one.
The same measure for `COc1ccccc1-c1cc(C(=O)O)ncc1C(=O)Nc1nc2ccc(-c3ccc(NC(C)=O)cc3)nc2s1` [Example 46, 5-((5-(4-acetamidophenyl)thiazolo[5,4-b]pyridin-2-yl)carbamoyl)-4-(2-methoxyphenyl)picolinic acid]: 129 nM; for `COc1ccccc1-c1cnncc1C(=O)Nc1nc2ccc(C(=O)NCCO)nc2s1` [Example 112, N-(2-hydroxyethyl)-2-(5-(2-methoxyphenyl)pyridazine-4-carboxamido)thiazolo[5,4-b]pyridine-5-carboxamide]: 60 nM.
`COc1ccccc1-c1cnncc1C(=O)Nc1nc2ccc(-c3ccc(N(C)C(C)=O)cc3)nc2s1` [Example 56, 5-(2-methoxyphenyl)-N-(5-(4-(N-methylacetamido)phenyl)thiazolo[5,4-b]pyridin-2-yl)pyridazine-4-carboxamide] displayed an IC50 of 15 nM.
The figure for `Cc1cc(-c2ccccc2C#N)c(C(=O)Nc2nc3ccc(-c4ccc(C#N)cc4)nc3s2)cn1` [Example 53, 4-(2-cyanophenyl)-N-(5-(4-cyanophenyl)thiazolo[5,4-b]pyridin-2-yl)-6-methylnicotinamide] is 78 nM; for `COc1ccccc1-c1cnncc1C(=O)Nc1nc2ccc(Oc3ccc(Cl)cc3)nc2s1` [Example 98, N-(5-(4-chlorophenoxy)thiazolo[5,4-b]pyridin-2-yl)-5-(2-methoxyphenyl)pyridazine-4-carboxamide] it is 22 nM.
Consider `COc1ccccc1-c1cnncc1C(=O)Nc1nc2ccc(-c3ccc(Cl)c4c3cnn4C)nc2s1` [Example 125, N-(5-(7-chloro-1-methyl-1H-indazol-4-yl)thiazolo[5,4-b]pyridin-2-yl)-5-(2-methoxyphenyl)pyridazine-4-carboxamide], for which half-maximal inhibition (IC50) required 25 nM.
In turn, `COc1ccc(C#N)cc1-c1cc(C)ncc1C(=O)Nc1nc2ccc(-c3ccc(OC4CNC4)cc3)nc2s1` [Example 170, N-(5-(4-(azetidin-3-yloxy)phenyl)thiazolo[5,4-b]pyridin-2-yl)-4-(5-cyano-2-methoxyphenyl)-6-methylnicotinamide] showed an IC50 of 26 nM.
`COc1ccccc1-c1cnncc1C(=O)Nc1nc2ccc(-c3c(C)cc(Cl)cc3C)nc2s1` [Example 101, N-(5-(4-chloro-2,6-dimethylphenyl)thiazolo[5,4-b]pyridin-2-yl)-5-(2-methoxyphenyl)pyridazine-4-carboxamide] returned an IC50 of 35 nM.
`COc1ccc(C#N)cc1-c1cc(C)ncc1C(=O)Nc1nc2ccc(-c3ccc([C@H](C)C#N)cc3)nc2s1` [Example 177B, (S)-4-(5-cyano-2-methoxyphenyl)-N-(5-(4-(1-cyanoethyl)phenyl)thiazolo[5,4-b]pyridin-2-yl)-6-methylnicotinamide] showed an IC50 of 13 nM. This IC50 is about 2.7-fold lower than that of the molecule before.
With `CCNC(=O)c1ccc2nc(NC(=O)c3cnncc3-c3ccccc3OC)sc2n1` [Example 94, N-ethyl-2-(5-(2-methoxyphenyl)pyridazine-4-carboxamido)thiazolo[5,4-b]pyridine-5-carboxamide], 29 nM corresponded to half-maximal inhibition (IC50).
`COCc1ccc(OC)c(-c2cc(C)ncc2C(=O)Nc2nc3ccc(-c4ccc(C#N)cc4)nc3s2)c1` [Example 66, N-(5-(4-cyanophenyl)thiazolo[5,4-b]pyridin-2-yl)-4-(2-methoxy-5-(methoxymethyl)phenyl)-6-methylnicotinamide] registered an IC50 of 99 nM.
`COc1ccc(C#N)cc1-c1cc(C)ncc1C(=O)Nc1nc2ccc(-c3ccc(C#N)c(C)c3)nc2s1` [Example 166, 4-(5-cyano-2-methoxyphenyl)-N-(5-(4-cyano-3-methylphenyl)thiazolo[5,4-b]pyridin-2-yl)-6-methylnicotinamide] gave an IC50 of 13 nM.
The molecule `COc1cc(Oc2ccc3nc(NC(=O)c4cnncc4-c4ccccc4OC)sc3n2)ccc1Cl` [Example 131, N-(5-(4-chloro-3-methoxyphenoxy)thiazolo[5,4-b]pyridin-2-yl)-5-(2-methoxyphenyl)pyridazine-4-carboxamide] had a 50% inhibitory concentration (IC50) of 14 nM. The IC50 values of the last two molecules are within 1.5-fold of each other.
Take `COc1ccccc1-c1cnncc1C(=O)Nc1nc2ccc(C(=O)NC3CCOCC3)nc2s1` [Example 113, 2-(5-(2-methoxyphenyl)pyridazine-4-carboxamido)-N-(tetrahydro-2H-pyran-4-yl)thiazolo[5,4-b]pyridine-5-carboxamide]: 167 nM corresponded to half-maximal inhibition (IC50).
The molecule `COc1ccccc1-c1cc(C)ncc1C(=O)Nc1nc2ccc(-c3ccc(Cl)cc3)nc2s1` [Example 14, N-(5-(4-chlorophenyl)thiazolo[5,4-b]pyridin-2-yl)-4-(2-methoxyphenyl)-6-methylnicotinamide] had an IC50 of 143 nM. This IC50 and that of the molecule before are within 1.5-fold of each other.
Take `Cc1cc(-c2cc(C#N)ccc2C2CC2)c(C(=O)Nc2nc3ccc(-c4ccc(C#N)cc4)nc3s2)cn1` [Example 167, 4-(5-cyano-2-cyclopropylphenyl)-N-(5-(4-cyanophenyl)thiazolo[5,4-b]pyridin-2-yl)-6-methylnicotinamide]: the IC50 worked out at 15 nM. Against the preceding molecule, the IC50 is about 9.5-fold lower.
As for `COc1ccc(C#N)cc1-c1cc(C)ncc1C(=O)Nc1nc2ccc(-c3ccc(C4(C#N)CC4)cc3)nc2s1` [Example 29, 4-(5-cyano-2-methoxyphenyl)-N-(5-(4-(1-cyanocyclopropyl)phenyl)thiazolo[5,4-b]pyridin-2-yl)-6-methylnicotinamide], half-maximal inhibition (IC50) required 57 nM.
Molecule `COc1ccc(C#N)cc1-c1cc(C)ncc1C(=O)Nc1nc2ccc(-c3ccc(N(C)S(C)(=O)=O)cc3)nc2s1` [Example 32, 4-(5-cyano-2-methoxyphenyl)-6-methyl-N-(5-(4-(N-methylmethylsulfonamido)phenyl)thiazolo[5,4-b]pyridin-2-yl)nicotinamide] displayed a 50% inhibitory concentration (IC50) of 26 nM.
The figure for `COc1ccc(C(F)(F)F)cc1-c1cc(C)ncc1C(=O)Nc1nc2ccc(-c3ccc(NC(C)=O)cc3)nc2s1` [Example 24, N-(5-(4-acetamidophenyl)thiazolo[5,4-b]pyridin-2-yl)-4-(2-methoxy-5-(trifluoromethyl)phenyl)-6-methylnicotinamide] is 62 nM; for `COc1ccccc1-c1cnncc1C(=O)Nc1nc2ccc(-c3ccc(Cl)c4nn(C)cc34)nc2s1` [Example 126, N-(5-(7-chloro-2-methyl-2H-indazol-4-yl)thiazolo[5,4-b]pyridin-2-yl)-5-(2-methoxyphenyl)pyridazine-4-carboxamide] it is 12 nM; for `COc1ccc(C#N)cc1-c1cc(C)ncc1C(=O)Nc1nc2ccc(-c3ccc(Cl)cc3)nc2s1` [Example 8, N-(5-(4-chlorophenyl)thiazolo[5,4-b]pyridin-2-yl)-4-(5-cyano-2-methoxyphenyl)-6-methylnicotinamide] it is 12 nM.
For `Cc1cc(-c2ccc(=O)n(C)c2C)c(C(=O)Nc2nc3ccc(-c4ccc(C#N)cc4)nc3s2)cn1` [Example 120, N-(5-(4-cyanophenyl)thiazolo[5,4-b]pyridin-2-yl)-1,2,6′-trimethyl-6-oxo-1,6-dihydro-[3,4′-bipyridine]-3′-carboxamide], inhibition was half-maximal at 7.9 nM (IC50).
`COc1ccccc1-c1cnncc1C(=O)Nc1nc2ccc(-c3ccc(N4CCCC4=O)cc3)nc2s1` [Example 93, 5-(2-methoxyphenyl)-N-(5-(4-(2-oxopyrrolidin-1-yl)phenyl)thiazolo[5,4-b]pyridin-2-yl)pyridazine-4-carboxamide] yielded an IC50 of 20 nM.
Regarding `COc1ccccc1-c1nc(C#N)ccc1C(=O)Nc1nc2ccc(-c3ccc(Cl)cc3)nc2s1` [Example 6, N-(5-(4-chlorophenyl)thiazolo[5,4-b]pyridin-2-yl)-6-cyano-2-(2-methoxyphenyl)nicotinamide], the IC50 came to 359 nM.
Turning to `COc1ccc(C#N)cc1-c1cc(Cl)ncc1C(=O)Nc1nc2ccc(-c3ccc(N4CCOCC4)cc3)nc2s1` [Example 58, 6-chloro-4-(5-cyano-2-methoxyphenyl)-N-(5-(4-morpholinophenyl)thiazolo[5,4-b]pyridin-2-yl)nicotinamide], the half-maximal inhibitory concentration (IC50) came out at 101 nM.
`COc1ccc(C#N)cc1-c1cc(C)ncc1C(=O)Nc1nc2ccc(-c3ccc(C(=O)N4CCOCC4)cc3)nc2s1` [Example 84, 4-(5-cyano-2-methoxyphenyl)-6-methyl-N-(5-(4-(morpholine-4-carbonyl)phenyl)thiazolo[5,4-b]pyridin-2-yl)nicotinamide] registered an IC50 of 49 nM. This IC50 is about 2.1-fold lower than that of the molecule before.
`COc1ccc(C#N)cc1-c1cc(F)ncc1C(=O)Nc1nc2ccc(-c3ccc(C#N)cc3)nc2s1` [Example 39, 4-(5-cyano-2-methoxyphenyl)-N-(5-(4-cyanophenyl)thiazolo[5,4-b]pyridin-2-yl)-6-fluoronicotinamide]: 73 nM corresponded to half-maximal inhibition (IC50).
The molecule `COc1ccccc1-c1cnncc1C(=O)Nc1nc2ccc(Oc3ccc(Cl)c(F)c3)nc2s1` [Example 130, N-(5-(4-chloro-3-fluorophenoxy)thiazolo[5,4-b]pyridin-2-yl)-5-(2-methoxyphenyl)pyridazine-4-carboxamide] came in with an IC50 of 35 nM.

The term IC50 denotes the concentration at which inhibition is half-maximal. Higher therefore signals weaker potency in that assay.
